pIC50: −log10 of the molar value.
Tested on: Plasmodium berghei
Assay: Luciferase/luciferin-expressing antifolate-resistant parasites were used to infect a culture of HepG2 cells that were pre-incubated with compounds. Infected hepatocytes emit light due to the luciferase reaction. Assay results are presented as the percent inhibition of light emission compared to control. […]
Type: functional
Conditions: sporozoite; for IC90: read-out: LUCIFERASE INFECTION ASSAY - IC90
[1] = read-out: LUCIFERASE INFECTION ASSAY - IC50

CCCOc1c(Cl)cc(C(=O)Nc2nonc2-c2cccs2)cc1Cl
pIC50 (HEPG2TOX_HILL_SLOPE 2.94, HEPG2TOX_R_SQUARED 0.74, PBLUC_HILL_SLOPE 28.4, PBLUC_R_SQUARED 0.116, read-out: LUCIFERASE INFECTION ASSAY - IC50): 5.58 | IC90: 2.87 µM

CCN1CCN(c2ccc(NC(=O)c3csc(COc4ccc(F)cc4)n3)c(C)c2)CC1
pIC50 (PBLUC_HILL_SLOPE 19.9, PBLUC_R_SQUARED 0.58, read-out: LUCIFERASE INFECTION ASSAY - IC50): 5.40 | IC90: 4.43 µM

Cc1cccc(-c2cn3c(-c4ccc(C#N)cc4)cnc3cn2)c1C
pIC50 (PBLUC_HILL_SLOPE 3.65, PBLUC_R_SQUARED 0.571, read-out: LUCIFERASE INFECTION ASSAY - IC50): 5.36 | IC90: 8.03 µM

Cc1cc(NC(=O)c2cc(C(C)(C)C)oc2C)nc(C)n1
pIC50 [1]: < 4.94 | IC90: > 11.5 µM

NC1=C(c2ccccc2)C(=O)c2ccccc21
pIC50 (PBLUC_HILL_SLOPE 3.17, PBLUC_R_SQUARED 0.165, read-out: LUCIFERASE INFECTION ASSAY - IC50): < 4.83 | IC90: > 14.9 µM

OCc1ccc(-c2cnc3cnc(-c4ccco4)cn23)cc1
pIC50 [1]: < 4.95 | IC90: > 11.3 µM

CC(C)Oc1ccc(C(=O)NCC(=O)Nc2nc3c(s2)CCCC3)cc1
pIC50 (PBLUC_HILL_SLOPE 9.11, PBLUC_R_SQUARED 0.281, read-out: LUCIFERASE INFECTION ASSAY - IC50): 5.48 | IC90: 4.24 µM

CCCc1ccc(-c2nc(-c3cccs3)no2)cc1
IC90: 0.0812 µM

COc1ccc2c(c1)nnc1nnc(SCC(=O)N3CCOCC3)n12
pIC50 [1]: < 5.04 | IC90: > 9.16 µM

CN(Cc1nc2ccccc2[nH]1)c1nccc(C(F)(F)F)n1
pIC50 [1]: < 5.00 | IC90: > 10 µM

CCN(CC)S(=O)(=O)c1ccc(O)c(NC(=O)c2ccc(SC(F)(F)F)cc2)c1
pIC50 [1]: < 5.00 | IC90: > 10 µM

CSc1nc2c3c(sc2c2nnc(SCCN(C)C)n12)CCCC3
pIC50 (PBLUC_HILL_SLOPE 2.05, PBLUC_R_SQUARED 0.263, read-out: LUCIFERASE INFECTION ASSAY - IC50): 5.26 | IC90: > 8.69 µM

OCc1ccc(-c2cnc3cnc(-c4ccccc4Cl)cn23)cc1
pIC50 (HEPG2TOX_HILL_SLOPE 2.47, HEPG2TOX_R_SQUARED 0.702, PBLUC_HILL_SLOPE 3.47, PBLUC_R_SQUARED 0.368, read-out: LUCIFERASE INFECTION ASSAY - IC50): 5.32 | IC90: 9.11 µM

CC(C)(C)c1cc2nc(C(F)(F)F)cc(NNC(=O)Nc3ccccc3)n2n1
pIC50 (PBLUC_HILL_SLOPE 3.27, PBLUC_R_SQUARED 0.167, read-out: LUCIFERASE INFECTION ASSAY - IC50): 5.27 | IC90: > 8.41 µM

N#Cc1cc(C(=O)c2ccc([N+](=O)[O-])cc2)c2nc3ccccc3n2c1N
pIC50 (HEPG2TOX_HILL_SLOPE 7.9, HEPG2TOX_R_SQUARED 0.276, PBLUC_HILL_SLOPE 1.76, PBLUC_R_SQUARED 0.097, read-out: LUCIFERASE INFECTION ASSAY - IC50): 5.03 | IC90: > 10 µM

CC(=O)Nc1nc(C(=O)Nc2ccc3c(c2)OC(F)(F)O3)cs1
pIC50 (PBLUC_HILL_SLOPE 15.0, 3.17, PBLUC_R_SQUARED 0.232, 0.795, read-out: LUCIFERASE INFECTION ASSAY - IC50): 5.10 | IC90: > 10 µM

CN(C)CCNS(=O)(=O)c1ccc(Cl)c([N+](=O)[O-])c1
pIC50 [1]: < 5.00 | IC90: > 10 µM

CCOC(=O)c1sc2cccc(F)c2c1CSc1nc2sccc2c(=O)n1C
pIC50 [1]: 5.39 | IC90: 9.27 µM

N#Cc1c(SCC(=O)c2ccc(F)c(F)c2)nc2c(c1-c1cccs1)CCCC2
pIC50 (PBLUC_HILL_SLOPE 15.7, PBLUC_R_SQUARED 0.483, read-out: LUCIFERASE INFECTION ASSAY - IC50): 5.12 | IC90: > 7.74 µM

O=c1ccc(-c2nc3c4c5c(sc4ncn3n2)CCCCC5)n[nH]1
pIC50 (HEPG2TOX_HILL_SLOPE 0.965, HEPG2TOX_R_SQUARED 0.912, PBLUC_HILL_SLOPE 1.19, PBLUC_R_SQUARED 0.691, read-out: LUCIFERASE INFECTION ASSAY - IC50): 5.88 | IC90: 8.47 µM

Clc1cccc(-c2ccnc3n[nH]c(-c4cccnc4)c23)c1
pIC50 (HEPG2TOX_HILL_SLOPE 2.64, HEPG2TOX_R_SQUARED 0.942, PBLUC_HILL_SLOPE 10.9, PBLUC_R_SQUARED 0.513, read-out: LUCIFERASE INFECTION ASSAY - IC50): 5.47 | IC90: 4.14 µM

C/C(CCc1ccc2c(c1)OCO2)=N\Nc1nc2ccccc2[nH]1
pIC50 [1]: < 5.00 | IC90: > 10 µM

O=C(NCCN1C(=O)S/C(=C\c2ccccc2Cl)C1=O)c1ccc(Br)o1
pIC50 [1]: < 5.00 | IC90: > 10 µM

O=C(NCCOc1ccccc1F)NCC1CC1
pIC50 [1]: < 5.00 | IC90: > 10 µM

Cc1ccc(OC(=O)c2ccc(C(C)(C)C)cc2)c(NC(=O)c2ccc(C(C)(C)C)cc2)c1
pIC50 (FFLUC_HILL_SLOPE 1.14, FFLUC_R_SQUARED 0.535, PBLUC_HILL_SLOPE 1.18, PBLUC_R_SQUARED 0.716, read-out: LUCIFERASE INFECTION ASSAY - IC50): 5.84 | IC90: > 7.44 µM

CCS(=O)(=O)N1CCC(C(=O)Nc2nnc(-c3cccc([N+](=O)[O-])c3)o2)(c2ccccc2)CC1
pIC50 (HEPG2TOX_HILL_SLOPE 16.8, 22.3, HEPG2TOX_R_SQUARED 0.565, 0.956, PBLUC_HILL_SLOPE 8.45, PBLUC_R_SQUARED 0.439, read-out: LUCIFERASE INFECTION ASSAY - IC50): 5.45 | IC90: 4.58 µM

Cn1c(-c2ccccc2)nc2cnc(-c3ccc(N)nc3)cc21
pIC50 (HEPG2TOX_HILL_SLOPE 4.2, HEPG2TOX_R_SQUARED 0.898, PBLUC_HILL_SLOPE 2.04, PBLUC_R_SQUARED 0.316, read-out: LUCIFERASE INFECTION ASSAY - IC50): 5.27 | IC90: > 10 µM

S=C(NCc1ccco1)Nc1ccc(Oc2ccc(Cl)cc2)cc1
pIC50 [1]: < 5.04 | IC90: > 9.2 µM

CNC(=O)NC(=O)CNc1ccc(C(F)(F)F)cc1
pIC50 [1]: < 5.00 | IC90: > 10 µM

Cc1nn(C)c2sc(C(=O)N(C)c3nc4ccccc4s3)cc12
pIC50 [1]: < 5.00 | IC90: > 10 µM

Cc1nnc(NC(=O)CN2CCC(c3nc4ccccc4o3)CC2)s1
pIC50 [1]: < 5.00 | IC90: > 10 µM

CCN(c1ccccc1)S(=O)(=O)c1ccc(C(=O)NC2CCCc3ccccc32)cc1 (stereo not drawn)
pIC50 [1]: < 5.00 | IC90: > 10 µM

Cc1nc2c(/C(N)=N/OCc3cccc(Cl)c3)cnn2c(C)c1C
pIC50 [1]: < 5.02 | IC90: > 9.6 µM

COc1cc(C(=O)Nc2ccc(Cn3cncn3)cc2)ccc1Oc1ccc(Cl)cc1[N+](=O)[O-]
pIC50 (PBLUC_HILL_SLOPE 72.9, PBLUC_R_SQUARED 0.579, read-out: LUCIFERASE INFECTION ASSAY - IC50): 5.22 | IC90: 6.19 µM

O=C(Nc1nn2cc(-c3ccccc3)nc2s1)C1CCC1
pIC50 (FFLUC_HILL_SLOPE 1.5, FFLUC_R_SQUARED 0.884, PBLUC_HILL_SLOPE 0.386, PBLUC_R_SQUARED 0.673, read-out: LUCIFERASE INFECTION ASSAY - IC50): 8.33 | IC90: 1.39 µM

CCOc1cccc(-c2cn3c(-c4ccc(Cl)cc4)cnc3cn2)c1
pIC50 [1]: 5.05 | IC90: > 9.43 µM

COC(=O)c1sc(NC(=O)COC(=O)C2Cc3ccccc3CN2S(=O)(=O)c2cccs2)c(C(=O)OC)c1C (stereo not drawn)
pIC50 [1]: < 5.00 | IC90: > 10 µM

Cn1nnnc1Sc1ncnc2sc3c(c12)CCCC3
pIC50 [1]: < 5.00 | IC90: > 10 µM

CCOc1cc(/C=C/C(=O)c2ccc(N(C)C)cc2)cc(Br)c1OCC(=O)N(C)C
pIC50 [1]: 5.63 | IC90: 4.93 µM

FC(F)(F)c1nc2ccccc2nc1N/N=C/c1ccc(Cl)cc1
pIC50 (HEPG2TOX_HILL_SLOPE 7.63, HEPG2TOX_R_SQUARED 0.926, PBLUC_HILL_SLOPE 14.9, PBLUC_R_SQUARED 0.207, read-out: LUCIFERASE INFECTION ASSAY - IC50): 5.10 | IC90: 9.28 µM

O=C(OCc1cc(=O)n2cc(Br)ccc2n1)C1(c2ccccc2)CC1
pIC50 [1]: < 5.00 | IC90: > 10 µM

COc1ccc(C(C)(C)C)cc1NC(=O)C(=O)c1c(-c2ccccc2)cc2ccccn12
pIC50 (PBLUC_HILL_SLOPE 2.71, PBLUC_R_SQUARED 0.442, read-out: LUCIFERASE INFECTION ASSAY - IC50): 5.40 | IC90: 8.89 µM

Fc1cccc(-c2cnc3cnc(-c4ccc(CNc5ccccc5)cc4)cn23)c1
pIC50 (PBLUC_HILL_SLOPE 9.4, PBLUC_R_SQUARED 0.212, read-out: LUCIFERASE INFECTION ASSAY - IC50): < 5.08 | IC90: > 8.37 µM

Cc1c(-n2nnnc2SCC(C)C)c(=O)n(-c2ccccc2)n1C
pIC50 [1]: < 5.00 | IC90: > 10 µM

COc1cccc(-c2ccc3ncc(-c4cccc(C(=O)NCCN(C)C)c4)n3n2)c1
pIC50 [1]: 5.77 | IC90: 4.07 µM

Brc1ccc(CNc2ccc3ncccc3c2)cc1
pIC50 [1]: < 4.98 | IC90: > 10.5 µM

COc1ccc(Nc2nccc3nc(-c4cccc(OC(F)(F)F)c4)[nH]c23)cc1OC
pIC50 [1]: 5.45 | IC90: > 10 µM

Cc1ccc(C(=O)Nc2ccnn2CC(C)C)cn1
pIC50 [1]: < 5.00 | IC90: > 10 µM

CC(C)(C)OC(=O)NCc1ccc(C(=O)NNC(=O)c2ccccc2O)cc1
pIC50 [1]: < 5.00 | IC90: > 10 µM

c1cncc(-c2cnc3sc(NCc4ccncc4)nn23)c1
pIC50 (PBLUC_HILL_SLOPE 12.5, PBLUC_R_SQUARED 0.401, read-out: LUCIFERASE INFECTION ASSAY - IC50): 5.00 | IC90: > 10.7 µM

OCc1ccc(-c2cnc3ccc(-c4cccc(F)c4)nn23)cc1
pIC50 (FFLUC_HILL_SLOPE 16.8, FFLUC_R_SQUARED 0.417, HEPG2TOX_HILL_SLOPE 9.34, HEPG2TOX_R_SQUARED 0.811, PBLUC_HILL_SLOPE 2.28, PBLUC_R_SQUARED 0.536, read-out: LUCIFERASE INFECTION ASSAY - IC50): 5.50 | IC90: 8.2 µM

Cn1c(N)c(C(=O)COC(=O)c2c3c(nc4ccccc24)/C(=C/c2ccc(O)cc2)CCC3)c(=O)n(C)c1=O
pIC50 [1]: 5.58 | IC90: 6.45 µM

Source: ChEMBL document CHEMBL4483862, “Open-source discovery of chemical leads for next-generation chemoprotective antimalarials” (2018)
